Measurements reported in patent US7276511B2, “Benzylamine derivative” (Zeria Pharmaceutical Co., Ltd., priority 2003, dated 2007).
Structures can show the parent of a compound that is named as a salt.

What follows are compounds tested against NK-1 receptor (Homo sapiens, UniProt P25103) (assay: NK-1 receptor-binding test ([3H]-Substance P, hNK1-CHO cells)). Settings: not given.
Sequence of NK-1 receptor (P25103 whole entry): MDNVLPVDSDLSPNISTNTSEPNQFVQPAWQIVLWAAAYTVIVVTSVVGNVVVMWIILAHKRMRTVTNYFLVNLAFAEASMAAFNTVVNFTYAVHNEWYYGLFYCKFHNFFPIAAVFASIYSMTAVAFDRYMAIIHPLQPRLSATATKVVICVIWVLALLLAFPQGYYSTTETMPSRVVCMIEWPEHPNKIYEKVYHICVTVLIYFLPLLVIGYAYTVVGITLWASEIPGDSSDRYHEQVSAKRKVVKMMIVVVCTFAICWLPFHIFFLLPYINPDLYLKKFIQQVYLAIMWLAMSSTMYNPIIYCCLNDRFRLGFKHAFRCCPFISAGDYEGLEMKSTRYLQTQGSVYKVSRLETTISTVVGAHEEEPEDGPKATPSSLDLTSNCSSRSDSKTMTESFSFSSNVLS
Parameters: expressed in transfected cells; host or cells: CHO-K1 cells (ATCC: CCL-61), G418-resistant, hNK1-CHO
Method: 1. NK-1 Receptor-binding Test
1) Preparation of Human NK-1 Receptor Expression Cells
FuGene 6 transfection reagent (Boegringer Mannheim) (3 μL) was diluted in an F-12 culture broth (97 μL), and pCR3.1 plasmid to which human NK-1 receptor cDNA had been introduced (Invitrogen) (10 μL) was added thereto. The mixture was mixed and incubated for 15 minutes (transfection reagent). CHO-K1 cells (ATCC: CCL-61) were cultured for 24 hours, and the whole reagent prepared above was added to the cultured CHO-K1 cells ([…]). Subsequently, culture was performed in the presence of G418 (Stratagene), and the resistant cells were employed as cells into which human NK-1 receptor gene was introduced (hNK1-CHO).
2) Subcultivation of hNK1-CHO Cells
The hNK1-CHO cells were treated with trypsin-EDTA and subcultivated in an F-12 culture broth (containing 10% fetal bovine serum, 10 mM HEPES, 100 U/mL, penicillin, 100 μg/mL streptmycin, 400 μg/mL G418) in a 75-cm^2 flask (FALCON). Cells to be employed in the receptor-binding experiment were added to a 24-well plate (IWAKI) at 1×10^5 cells/well, and subcultured for 48 hours at 37° C. under 95% […] and 5% CO2.
3) Receptor-binding Experiment
When the hNK1-CHO cells became subconfluent on the 24-well plate, an F-12 culture broth (containing 10 mM HEPES and 0.1% fetal bovine serum) (450 μL), [^3H]-Substance P (Amersham, final concentration 0.5 nM), and a test compound were added to the cells, and the mixture was incubated for 40 minutes at 37° C. For the measurement of non-specific binding, L703606 (Sigma) was added instead of the test compound. After completion of incubation, the mixture was washed with ice-cooled phosphate buffered saline containing 0.1% fetal bovine serum, and the cells were lysed with 1N NaOH (0.5 mL). The lysate was transfered to a plastic vial containing UltimaGold MV (5 mL), and the radioactivity was determined by means of a liquid liquid scintillation counter (Packard, 2000CA).
Percent radioactive ligand-receptor binding inhibition of each test compound was calculated by use of the following equation, and IC50 (nM) was determined through pseudo-Hill analysis.
Percent inhibition (%)=[1−(C−A)/(B−A)]×100
A: Radioactivity attributed to non-specific binding
B: Radioactivity without test compound
C: Radioactivity with test compound
For `CN(C[C@](CCCN1CCC2(CC1)c1ccccc1C[S@+]2[O-])(c1ccc(Cl)c(Cl)c1)N(C)C(=O)Oc1cccc(F)c1)C(=O)CC(F)(F)F` [Compound No. 634, 3-fluorophenyl{1-(3,3,3-trifluoro-N-methylpropanamido)-2-(S)-(3,4-dichlorophenyl)-5-[spiro(benzo(c)thiophene-(2S)-oxido-1(3H),4′-piperidin)-1′-yl]pentan-2-yl}methylcarbamate hydrochloride], the IC50 was 2 nM. `CN(C[C@](CCCN1CCC2(CC1)c1ccccc1C[S@+]2[O-])(c1ccc(Cl)c(Cl)c1)N(C)C(=O)Oc1cccc(Cl)c1Cl)C(=O)CC(F)(F)F` [Compound No. 653, 2,3-dichlorophenyl{1-(3,3,3-trifluoro-N-methylpropanamido)-2-(S)-(3,4-dichlorophenyl)-5-[spiro(benzo(c)thiophene-(2S)-oxido-1(3H),4′-piperidin)-1′-yl]pentan-2-yl}methylcarbamate hydrochloride] gave an IC50 of 1.6 nM. `CN(C[C@](CCCN1CCC2(CC1)c1ccccc1C[S@+]2[O-])(c1ccc(Cl)c(Cl)c1)N(C)C(=O)Oc1ccc(Cl)c(Cl)c1)C(=O)CC(F)(F)F` [Compound No. 654, 3,4-dichlorophenyl{1-(3,3,3-trifluoro-N-methylpropanamido)-2-(S)-(3,4-dichlorophenyl)-5-[spiro(benzo(c)thiophene-(2S)-oxido-1(3H),4′-piperidin)-1′-yl]pentan-2-yl}methylcarbamate hydrochloride] gave an IC50 of 3 nM. Compound `CN(C[C@](CCCN1CCC2(CC1)c1ccccc1C[S@+]2[O-])(c1ccc(Cl)c(Cl)c1)N(C)C(=O)Oc1ccccc1)C(=O)C(F)(F)F` [Compound No. 642, phenyl{1-(2,2,2-trifluoro-N-methylacetamide)-2-(S)-(3,4-dichlorophenyl)-5-[spiro(benzo(c)thiophene-(2S)-oxido-1(3H),4′-piperidin)-1′-yl]pentan-2-yl}methylcarbamate hydrochloride] has an IC50 of 3.7 nM. In the case of `CN(C[C@](CCCN1CCC2(CC1)c1ccccc1C[S@+]2[O-])(c1ccc(Cl)c(Cl)c1)N(C)C(=O)Oc1ccccc1F)C(=O)CC(F)(F)F` [Compound No. 638, 2-fluorophenyl{1-(3,3,3-trifluoro-N-methylpropanamido)-2-(S)-(3,4-dichlorophenyl)-5-[spiro(benzo(c)thiophene-(2S)-oxido-1(3H),4′-piperidin)-1′-yl]pentan-2-yl}methylcarbamate hydrochloride], the IC50 is reported as 6 nM. For `COc1ccc(OC(=O)N(C)[C@](CCCN2CCC3(CC2)c2ccccc2C[S@+]3[O-])(CN(C)C(=O)CC(F)(F)F)c2ccc(Cl)c(Cl)c2)cc1` [Compound No. 640, 4-methoxyphenyl{1-(3,3,3-trifluoro-N-methylpropanamido)-2-(s)-(3,4-dichlorophenyl)-5-[spiro(benzo(c)thiophene-(2S)-oxido-1(3H),4′-piperidin)-1′-yl]pentan-2-yl}methylcarbamate hydrochloride], the IC50 was 6 nM. In the case of `CN(C[C@](CCCN1CCC2(CC1)c1ccccc1C[S@+]2[O-])(c1ccc(Cl)c(Cl)c1)N(C)C(=O)Oc1ccc(F)cc1)C(=O)CC(F)(F)F` [Compound No. 639, 4-fluorophenyl{1-(3,3,3-trifluoro-N-methylpropanamido)-2-(S)-(3,4-dichlorophenyl)-5-[spiro(benzo(c)thiophene-(2S)-oxido-1(3H),4′-piperidin)-1′-yl]pentan-2-yl}methylcarbamate hydrochloride], the IC50 is reported as 4 nM. `CN(C[C@](CCCN1CCC2(CC1)c1ccccc1C[S@+]2[O-])(c1ccc(Cl)c(Cl)c1)N(C)C(=O)Oc1ccccc1)C(=O)CC(F)(F)F` [Compound No. 591, phenyl{1-(3,3,3-trifluoro-N-methylpropanamido)-2-(S)-(3,4-dichlorophenyl)-5-[spiro(benzo(c)thiophene-(2S)-oxido-1(3H),4′-piperidin)-1′-yl]pentan-2-yl}methylcarbamate hydrochloride] showed an IC50 of 6.9 nM. In the case of `Cc1ccc(OC(=O)N(C)[C@](CCCN2CCC3(CC2)c2ccccc2C[S@+]3[O-])(CN(C)C(=O)CC(F)(F)F)c2ccc(Cl)c(Cl)c2)cc1` [Compound No. 652, 4-tolyl{1-(3,3,3-trifluoro-N-methylpropanamido)-2-(S)-(3,4-dichlorophenyl)-5-[spiro(benzo(c)thiophene-(2S)-oxido-1(3H),4′-piperidin)-1′-yl]pentan-2-yl}methylcarbamate hydrochloride], the IC50 is reported as 2.7 nM. For `CN(C[C@](CCCN1CCC2(CC1)c1ccccc1C[S@+]2[O-])(c1ccc(Cl)c(Cl)c1)N(C)C(=O)Oc1ccc(F)c(F)c1)C(=O)CC(F)(F)F` [compound 655, 3,4-difluorophenyl{1-(3,3,3-trifluoro-N-methylpropanamido)-2-(S)-(3,4-dichlorophenyl)-5-[spiro(benzo(c)thiophene-(2S)-oxido-1(3H),4′-piperidin)-1′-yl]pentan-2-yl}methylcarbamate hydrochloride], the IC50 was 1.3 nM. Work on `COc1cccc(OC(=O)N(C)[C@](CCCN2CCC3(CC2)c2ccccc2C[S@+]3[O-])(CN(C)C(=O)CC(F)(F)F)c2ccc(Cl)c(Cl)c2)c1` [Compound No. 637, 3-methoxyphenyl{1-(3,3,3-trifluoro-N-methylpropanamido)-2-(S)-(3,4-dichlorophenyl)-5-[spiro(benzo(c)thiophene-(2S)-oxido-1(3H), 41-piperidin)-1′-yl]pentan-2-yl}methylcarbamate hydrochloride] yielded an IC50 of 1.7 nM.

Same assay, conditions: Table 2; inhibition of [3H]-Substance P (0.5 nM) binding to hNK1-CHO cells, pseudo-Hill analysis; read-out: NK-1
For `COc1cc(COC[C@](CCCN2CCC3(CC2)c2ccccc2C[S@+]3[O-])(c2ccc(Cl)c(Cl)c2)N(C)C(=O)Nc2cccc(C(F)(F)F)c2)cc(OC)c1OC` [Compound No. 616, 1-{1-(3,4,5-trimethoxybenzyloxy)-2-(S)-(3,4-dichlorophenyl)-5-[spiro(benzo(c)thiophene-(2S)-oxido-1(3H),4′-piperidin)-1′-yl]pentan-2-yl}-3-[3-(trifluoromethyl)phenyl]-1-methylurea hydrochloride], the IC50 was 2 nM. Work on `COc1cc(C(=O)N(C)CC(CCN2CCC(C(N)=O)(c3ccccc3)CC2)(c2ccc(Cl)c(Cl)c2)N(C)C(=O)Oc2ccccc2)cc(OC)c1OC` (racemic) [Compound No. 16, (3-(4-Carbamoyl-4-phenyl-piperidine-1-yl)-1-(3,4-dichloro-phenyl)-1-{[methyl-(3,4,5-trimethoxy-benzoyl)-amino]-methyl}-propyl)-methyl-carbamic acid phenyl ester hydrochloride] yielded an IC50 of 3.5 nM. Compound `COc1cc(COC[C@](CCCN2CCC3(CC2)c2ccccc2C[S@+]3[O-])(c2ccc(Cl)c(Cl)c2)N(C)C(=O)NCc2cccc(F)c2)cc(OC)c1OC` [Compound No. 618, 1-{1-(3,4,5-trimethoxybenzyloxy)-2-(S)-(3,4-dichlorophenyl)-5-[spiro(benzo(c)thiophene(2S)-oxido-1(3H),4′-piperidin)-1′-yl]pentan-2-yl}-3-(3-fluorobenzyl)-1-methylurea hydrochloride] has an IC50 of 1.2 nM. Compound `COc1cc(COC[C@](CCCN2CCC3(CC2)c2ccccc2C[S@+]3[O-])(c2ccc(Cl)c(Cl)c2)N(C)C(=O)NCc2ccc(F)cc2)cc(OC)c1OC` [Compound No. 621, 1-{1-(3,4,5-trimethoxybenzyloxy)-2-(S)-(3,4-dichlorophenyl)-5-[spiro(benzo(c)thiophene(2S)-oxido-1(3H),4′-piperidin)-1′-yl]pentan-2-yl}-3-(4-fluorobenzyl)-1-methylurea hydrochloride] has an IC50 of 0.94 nM. Work on `COc1cc(COC[C@](CCCN2CCC3(CC2)c2ccccc2C[S@+]3[O-])(c2ccc(Cl)c(Cl)c2)N(C)C(=O)NC2CCCCC2)cc(OC)c1OC` [Compound No. 599, 1-{1-(3,4,5-trimethoxybenzyloxy)-2-(S)-(3,4-dichlorophenyl)-5-[spiro(benzo(c)thiophene-(2S)-oxido-1(3H),4′-piperidin)-1′-yl]pentan-2-yl}-3-cyclohexyl-1-methylurea hydrochloride] yielded an IC50 of 0.73 nM. In the case of `COc1cc(COC[C@](CCCN2CCC3(CC2)c2ccccc2C[S@+]3[O-])(c2ccc(Cl)c(Cl)c2)N(C)C(=O)NCc2ccccc2F)cc(OC)c1OC` [Compound No. 617, 1-{1-(3,4,5-trimethoxybenzyloxy)-2-(S)-(3,4-dichlorophenyl)-5-[spiro(benzo(c)thiophene(2S)-oxido-1(3H),4′-piperidin)-1′-yl]pentan-2-yl}-3-(2-fluorobenzyl)-1-methylurea hydrochloride], the IC50 is reported as 0.54 nM.
